Reference: article PMC12040169 (PLOS Biology, 2025)

Assay: in vitro
Conditions: human, hela cells, % viability

| Structure (SMILES) | viability at 28.5 h, 10 µM [%] |
| --- | --- |
| N#Cc1ccccc1CSc1nc(N2CCOCC2)nc(N2CCOCC2)n1 [CBK268998] | 92.3 |
| c1ccc(-c2csc3ncnc(-n4cnc5ccccc54)c23)cc1 [CBK264494] | 109 |
| Cc1ccc(S(=O)(=O)NC(=O)Nc2cccc(NC(=O)NS(=O)(=O)c3ccc(C)cc3)n2)cc1 [CBK296102] | 103 |
| FC(F)(F)c1ccnc(OCCNc2ccccc2)n1 [CBK115839] | 90.8 |
| CC(=O)Nc1ccc(S(=O)(=O)NC2(C(F)(F)F)N=C(c3ccccc3)NC2=O)cc1 (stereo not shown) [CBK267932] | 113 |
| O=C(N/N=C/c1ccc(O)c(I)c1)c1ccncc1 [CBK262144] | 86.2 |
| COc1ccc2c(c1)CCCN2C(=O)CCn1ccc(C)n1 [CBK282217] | 104 |
| O=C1O[C@@H](CO)CN1c1ccc(N(Cc2ccccc2)Cc2ccccc2)c(F)c1 [CBK016873] | 103 |
| Nc1ccc(Cc2ccc(N)c(O)c2)cc1O [CBK261149] | 100 |
| O=C(NCc1ccncc1)c1ncoc1-c1ccc(F)cc1 [CBK282354] | 83.8 |
| O=S(=O)(Nc1cccc2nsnc12)c1cccs1 [CBK017018] | 75.6 |
| COc1cccc(Cn2c(=O)[nH]n(-c3ccccc3)c2=O)c1 [CBK122771] | 97.7 |
| Cc1nc2sccn2c1CN(CCCN(C)C)Cc1ccco1 [CBK283199] | 92.5 |
| CC1CCc2n[nH]c(C(=O)NCCCc3ccco3)c2C1 (stereo not shown) [CBK283153] | 88.6 |
| NC(=O)C1CCN(CC(=O)Nc2cc(C(F)(F)F)ccc2Cl)CC1 [CBK269776] | 100 |
| CC1CCN(CCCNS(=O)(=O)c2ccc(N3CCCC3=O)cc2)CC1 [CBK304220] | 95.9 |
| Cc1nc(-c2nnc(NC(=O)COc3ccc(Cl)cc3Cl)o2)cs1 [CBK287843] | 109 |
| CCc1ccc(Oc2c(CC(=O)O)oc3cc(O)c(CC)cc3c2=O)cc1 [CBK266108] | 106 |
| COc1ccc(CNc2nc(-c3cccnc3)nn2C(=O)c2ccc([N+](=O)[O-])cc2)cc1 [CBK268966] | 98.9 |
| CCn1ncc(CN2CCC(O)(c3ccc(C)cc3)CC2)c1C [CBK282956] | 90.2 |
| O=S(=O)(Nc1cccc2ncccc12)c1ccc(OC(F)(F)F)cc1 [CBK044490] | 112 |
| Cc1ccc(Cn2nc(C)c(NC(=O)c3nc4ncccn4n3)c2C)cc1 [CBK268912] | 90.9 |

| Structure (SMILES) | viability at 28.5 h, 10 µM [%] |
| --- | --- |
| COc1cccc(C(=O)NCCC(=O)N2CCOCC2)c1 [CBK304639] | 104 |
| O=C(Nc1ccc(N2CCCCC2)c(F)c1)C1CC(=O)N(C2CC2)C1 (stereo not shown) [CBK281387] | 108 |
| O=C(NCc1ccccn1)c1ncoc1-c1ccc(F)cc1 [CBK282352] | 79.6 |
| O=C(NCc1ccccn1)c1cc2cc(Cl)ccc2[nH]1 [CBK107265] | 88.2 |
| Cn1c(=O)[nH]c(=O)c2c1nc(CN1CCOCC1)n2CCc1ccccc1 [CBK269910] | 88 |
| CCN(CC)C(=O)C1CCCN(C(=O)NCc2cnc(C)cn2)C1 (stereo not shown) [CBK156122] | 101 |
| Cc1cc(C2CCCN(C(=O)CC3OCCc4sccc43)C2)n[nH]1 (stereo not shown) [CBK305241] | 94.3 |
| CCCC/C=C\c1nccnc1OCCn1cccc1 [CBK106891] | 104 |
| O=C1NCCNC(=O)C2(CCCCOc3ccccc31)CCN(C(=O)c1ccnnc1)CC2 [CBK292105] | 107 |
| COc1ccc(Cl)cc1/C=C/C(=O)NCc1ccc(C(=O)O)cc1 [CBK286908] | 89.3 |
| O=C(CCCC1CCNCC1)Nc1nnc(C2CC2)s1 [CBK169224] | 97.1 |
| Cc1cc(NC(=O)Cc2cn3ccsc3n2)ccc1N1CCCC1 [CBK306080] | 79.8 |
| CCN(CC)CCNC(=O)c1c(C)oc2cc(Br)c(OC)cc12 [CBK018064] | 87.3 |
| COc1ccc(CNC(=O)Cn2nnc(-c3ccc(NC(=O)C4CCCCC4)cc3)n2)cc1 [CBK135876] | 101 |
| CCC(Sc1nc(N)cc(=O)[nH]1)C(=O)Nc1ccc2ccccc2c1 (stereo not shown) [CBK265761] | 98.9 |
| COc1ncc(-c2nccnc2NCc2cccs2)c(OC)n1 [CBK037318] | 95.9 |
| COCCOCN1C(=O)CC2(C1=O)C(=O)N(CC(=O)O)c1ccc(F)cc12 (stereo not shown) [CBK076163] | 90.5 |
| Cc1cccc(CN2CCCC[C@H]3CN(C(=O)c4cccs4)C[C@H]32)c1 [CBK285530] | 85.8 |
| CC(=O)NCc1nnc2c3ccccc3c(-c3ccccc3)nn12 [CBK270123] | 92.3 |
| NC(=O)c1ccccc1NC(=O)CN1CCN(Cc2cccc(Cl)c2)CC1 [CBK270320] | 103 |
| Cc1nn(C)c(C(=O)NNC(=S)Nc2ccc(S(N)(=O)=O)cc2)c1Br [CBK266963] | 92.5 |
| Cc1ccc2nc(C)c(CCC(=O)O)c(O)c2c1 [CBK262946] | 91.8 |

| Structure (SMILES) | viability at 28.5 h, 10 µM [%] |
| --- | --- |
| Fc1ccc(CCN2CCC(c3nc(-c4cccnc4)no3)CC2)cc1 [CBK051464] | 118 |
| Cc1oc(C(C)(C)C)cc1C(=O)NCCNc1c(Cl)cccc1[N+](=O)[O-] [CBK265032] | 119 |
| CC(C(=O)O)c1cc(C(=O)c2ccccc2)sc1-c1ccccc1 (stereo not shown) [CBK260968] | 91.3 |
| O=C(NC1(c2cccc(F)c2)CCCC1)c1cnccn1 [CBK283619] | 93 |
| CN1C(=O)C(CC(=O)Nc2ccc(F)cc2)N(CCc2ccccc2)C1=S (stereo not shown) [CBK263861] | 118 |
| Cc1ccn2cc(-c3ccc4c(c3)CC(C)N4S(C)(=O)=O)nc2c1 (stereo not shown) [CBK285183] | 84.6 |
| COc1cccc(C(=O)N2CCN(C)C(=O)C2Cc2ccccc2-c2ccccc2)c1OC (stereo not shown) [CBK285828] | 109 |
| CN1[C@@H](CCC(=O)Nc2ccccc2)CNC(=O)[C@@H]2[C@H]1CCN2C1CCOCC1 [CBK289029] | 108 |
| COc1cc(CNC23CC4CC(CC(C4)C2)C3)c(Cl)cc1OCC(=O)O [CBK269567] | 87.6 |
| CCNc1nc(-c2ccc3c(c2)CCCN3S(C)(=O)=O)cs1 [CBK305861] | 89.8 |
| CSc1ncc(Cl)c(C(=O)Nc2ccc(S(=O)(=O)N3CCC(Cc4ccccc4)CC3)cc2)n1 [CBK268870] | 96.3 |
| CC(C)(C)OC(=O)N1CCC(Oc2nccc3c2ccn3Cc2ccc(S(C)(=O)=O)cc2)CC1 [CBK132881] | 89.2 |
| Cc1ccc2[nH]c(-c3cccc(NC(=O)c4ccc(-n5cnnc5)cc4)c3)nc2c1 [CBK285839] | 94.1 |
| O=C(O)CC(C(=O)O)N1C(=O)/C(=C\C(Cl)=C/c2ccc([N+](=O)[O-])cc2)SC1=S (stereo not shown) [CBK261013] | 99.2 |
| O=C(CCn1cnc2ccccc2c1=O)Nc1ccc(Cl)c(Cl)c1 [CBK266738] | 89.6 |
| CC(=O)N[C@H]1CC[C@]2(C)CCC([C@H](C)C(=O)NC3CC3)[C@H](O)[C@H]2[C@@H]1C (stereo partly shown) [CBK289437] | 93.9 |
| COc1ccc(-c2nn(-c3ccccc3)cc2/C=C2\SC(N3CC(C)OC(C)C3)=NC2=O)cc1F (stereo not shown) [CBK265613] | 100 |
| CC(C)Nc1nccnc1-c1cccc(O)c1 [CBK037089] | 97.3 |
| O=C(O)C(Cc1cc2ccccc2[nH]1)N1C(=O)C2CC=C(Cl)CC2C1=O (stereo not shown) [CBK266216] | 94.2 |
| O=C(Cn1cnc2ccccc21)N1CCc2[nH]c3ccccc3c2C1 [CBK281860] | 74.7 |
| N#Cc1cccc(C(=O)N2CCN(c3ncccn3)CC2)c1 [CBK144498] | 82.2 |
| CCNC(=O)N1CCN(CCCCN2C(=O)CC3(CCCC3)CC2=O)CC1 [CBK024999C] | 102 |

| Structure (SMILES) | viability at 28.5 h, 10 µM [%] |
| --- | --- |
| O=C(c1cnn(-c2ccccc2)c1)N1CCc2[nH]c3ccccc3c2C1 [CBK281853] | 74.1 |
| O=C(Nc1cccc(CCc2ccccn2)c1)Nc1cccc2ccccc12 [CBK262337] | 87.7 |
| COC(=O)c1cc(Cl)c(NC(=S)NC(=O)C(C)(C)C)cc1OC [CBK020937] | 94.1 |
| CCC(C)NC(=O)C(Cc1ccc([N+](=O)[O-])cc1)N1C(=O)c2ccccc2C1=O (stereo not shown) [CBK261278] | 105 |
| CNCC1CCN(S(=O)(=O)c2ccc(OCc3ncnn3C)cc2)CC1 [CBK304309C] | 97.6 |
| COC(=O)c1ccc(N2CCOCC2)c(NC(=O)COc2ccccc2)c1 [CBK270222] | 84.6 |
| CCCc1ccc(S(=O)(=O)Nc2c(C(=O)OC)sc3ncccc23)cc1 [CBK050653] | 87.2 |
| COc1ccc(OC(C)C(=O)Nc2ccccc2-c2ccccc2)cc1 (stereo not shown) [CBK266661] | 94.2 |
| CCOc1cc(/C=C(/C#N)c2nc3ccccc3[nH]2)ccc1OCc1ccc(C(=O)O)o1 [CBK267923] | 88.9 |
| CCOC(=O)CN1CCN(S(=O)(=O)c2cc(Cl)ccc2Cl)CC1 [CBK044628] | 91.1 |
| O=C1c2ccccc2C(=O)N1CCc1nnn[nH]1 [CBK007829] | 111 |
| COc1ccc(N2CCN(C(=O)CCC(F)(F)F)CC2)cc1 [CBK091419] | 100 |
| Cn1c(=O)c2c(nc(CN3CCN(C(=O)c4ccco4)CC3)n2Cc2ccccc2)n(C)c1=O [CBK269437] | 93 |
| CC(=O)Nc1cc(S(=O)(=O)N2CCOCC2)c(Br)cc1C [CBK034334] | 92.8 |
| CC(C)C12CN3CC(C(C)C)(CN(C1)C3c1c[nH]c3ccccc13)C2=O (stereo not shown) [CBK263740] | 96.1 |
| C1=NC2C(COCc3ccccc3)CCC2N1c1ccccc1 (stereo not shown) [CBK010679] | 107 |
| COc1cc2ccccc2cc1C(=O)Nc1nnc(-c2ccncc2)o1 [CBK287432] | 93.1 |
| CSCCN1CCC2(CC1)CN(CCO)c1ccccc12 [CBK126771] | 94.6 |
| COc1ccc(-n2nc(N)c3c(=O)oc(N(C)C)nc32)cc1 [CBK007445] | 89.9 |
| Sc1nnc(COc2ccc(Cl)cc2Cl)n1Cc1ccccc1 [CBK263138] | 88.2 |
| O=C(c1ccc(Oc2ccccc2)cc1)N1CCC2(CCN(Cc3ccccc3)C2)C1 (stereo not shown) [CBK136833] | 99.3 |
| COC(=O)[C@@H]1Cc2ncn(Cc3ccc(OC)cc3)c2CN1C(=O)c1ccc(C#N)cc1 [CBK288982] | 95.4 |
